Structures can show the parent of a compound that is named as a salt. Where two headings read alike, the source gives them in different places.
What was measured:
human NTCP [1] = molecular target: T1, human NTCP (Homo sapiens, UniProt Q14973); experiment: Screening fluorescent competitive Myrcludex B-FITC binding assay (96-well, 10 µM drug)
T1 sequence (Q14973 1-349): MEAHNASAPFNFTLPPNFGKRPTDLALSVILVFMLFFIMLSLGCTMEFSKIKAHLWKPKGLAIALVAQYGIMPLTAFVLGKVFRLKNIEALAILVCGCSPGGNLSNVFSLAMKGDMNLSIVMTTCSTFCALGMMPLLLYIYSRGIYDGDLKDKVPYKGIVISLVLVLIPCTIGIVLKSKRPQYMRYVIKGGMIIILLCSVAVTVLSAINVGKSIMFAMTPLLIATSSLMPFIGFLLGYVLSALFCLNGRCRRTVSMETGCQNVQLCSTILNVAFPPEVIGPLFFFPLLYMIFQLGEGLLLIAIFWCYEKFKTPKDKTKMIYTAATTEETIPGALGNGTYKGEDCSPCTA

human NTCP [2] = molecular target: T1, human NTCP; experiment: Screening taurocholate uptake assay (96-well, [14C]taurocholate, 10 µM drug)
[3] = screen, 10 µM drug, Myrcludex B-FITC binding
[4] = combined ranking from functional and binding screening assays
[5] = screen, 10 µM drug, taurocholate uptake
[6] = Prestwick library screen, 10 µM drug, B-score of Myrcludex B-FITC binding
[7] = Prestwick library screen, 10 µM drug, B-score of taurocholate uptake
[8] = combined ranking from functional and binding assay B-scores
[9] = Prestwick library screen, Myrcludex B-FITC binding, 10 µM drug
[10] = Prestwick library screen, taurocholate uptake, 10 µM drug
[11] = ranking score beside the functional and binding assay B-scores of the screen

SMILES	B-score binding assay (human NTCP [1]; [3])	Ranking score (human NTCP [2]; [4])	B-score functional assay (human NTCP [2]; [5])	B-score binding assay (human NTCP [1]; [6])	B-score functional assay (human NTCP [2]; [7])	Ranking score (human NTCP [2]; [8])	further results
CC(=O)Oc1cc(C(C)C)c(OCCN(C)C)cc1C.Cl [Moxisylyte hydrochoride]	-0.183	375.319	-0.84				
COc1nc(C)nc(Cl)c1N=C1NCCN1 [Moxonidine]	-0.494	427.083	-0.211				
COc1ccc2cc(CCC(C)=O)ccc2c1 [Nabumetone]	-1.377	286.691	-0.236				
CC(C)(C)NCC(O)COc1cccc2c1CC(O)C(O)C2 (stereo not drawn) [Nadolol]				1.627	0.292	986.853	
CN(C/C=C/c1ccccc1)Cc1cccc2ccccc12 [Naftifine hydrochloride]							B-score binding assay (human NTCP [1]; [9]): -0.234; B-score functional assay (human NTCP [2]; [10]): 0.726; Ranking score (human NTCP [2]; [11]): 685.775
COc1ccccc1N1CCN(CC(O)COc2cccc3ccccc23)CC1.Cl.Cl (stereo not drawn) [Naftopidil dihydrochloride]	1.879	412.912	-1.853				
Oc1ccc2c3c1O[C@H]1[C@@H](O)CC[C@@]4(O)[C@@H](C2)N(CC2CCC2)CC[C@]314 [Nalbuphine hydrochloride]							B-score binding assay (human NTCP [1]): -0.132; B-score functional assay (human NTCP [2]): -1.445; Ranking score (human NTCP [2]): 312.49
C=CCN1CC[C@]23c4c5ccc(O)c4O[C@H]2C(=O)CC[C@@]3(O)[C@H]1C5 [Naloxone hydrochloride]							B-score binding assay (human NTCP [1]): 0; Ranking score (human NTCP [2]; combined ranking of functional and binding screening assays): 578.749; B-score functional assay (human NTCP [2]; screening taurocholate uptake, 10 µM drug): -0.111
C[C@]12CC[C@H]3[C@@H](CCC4=CC(=O)CC[C@@H]43)[C@@H]1CC[C@@H]2O [Nandrolone]							B-score binding assay (human NTCP [1]): 0.982; B-score functional assay (human NTCP [2]): 0.05; Ranking score (human NTCP [2]): 852.366
COc1ccc2cc([C@H](C)C(=O)O)ccc2c1 [Naproxen]	-0.298	422.428	-0.433				
CC(C)[C@H]1CC[C@H](C(=O)N[C@H](Cc2ccccc2)C(=O)O)CC1 [Nateglinide]	0.322	461.181	-1.02				
CN1CCOC(c2ccccc2)c2ccccc2C1 (stereo not drawn) [Nefopam hydrochloride]				0.293	0.705	906.685	
NC[C@@H]1O[C@H](O[C@H]2[C@@H](O)[C@H](O[C@@H]3[C@@H](O)[C@H](N)C[C@H](N)[C@H]3O[C@H]3O[C@H](CN)[C@@H](O)[C@H](O)[C@H]3N)O[C@@H]2CO)[C@H](N)[C@@H](O)[C@@H]1O.O=S(=O)(O)O [Neomycin sulfate]				0.524	0.497	912.995	
CN(C)C(=O)Oc1cccc([N+](C)(C)C)c1 [Neostigmine bromide]							B-score binding assay (human NTCP [1]; [9]): 0.229; B-score functional assay (human NTCP [2]; [10]): -0.02; Ranking score (human NTCP [2]; [11]): 703.343
O=C(O)c1cccnc1 [Niacin]							B-score binding assay (human NTCP [1]; [9]): 0.206; B-score functional assay (human NTCP [2]; [10]): 0.004; Ranking score (human NTCP [2]; [11]): 716.877
O=C(CCNNC(=O)c1ccncc1)NCc1ccccc1 [Nialamide]				0.697	0.331	907.486	
COC(=O)C1=C(C)NC(C)=C(C(=O)OCCN(C)Cc2ccccc2)C1c1cccc([N+](=O)[O-])c1 (stereo not drawn) [Nicardipine hydrochloride]	-1.032	378.616	-0.022				
NC(=O)c1cccnc1 [Nicotinamide]				0.079	1.452	911.172	
O=C(O)c1cccnc1Nc1cccc(C(F)(F)F)c1 [Niflumic acid]							B-score binding assay (human NTCP [1]; [9]): -0.054; B-score functional assay (human NTCP [2]; [10]): 0.166; Ranking score (human NTCP [2]; [11]): 675.036
O=C(N/N=C/c1ccc([N+](=O)[O-])o1)c1ccc(O)cc1 [Nifuroxazide]				0.661	2.774	1088.47	
CC1CS(=O)(=O)CCN1/N=C/c1ccc([N+](=O)[O-])o1 (stereo not drawn) [Nifurtimox]	-0.222	381.366	-0.767				
CC1(C)NC(=O)N(c2ccc([N+](=O)[O-])c(C(F)(F)F)c2)C1=O [Nilutamide]				0.756	5.352	1119.7	
